# Assay results reported in patent US12691136B2, “Metal compositions and methods of use thereof” (THE UNIVERSITY OF MASSACHUSETTS, priority 2020, dated 2026).
# Entries after “also recorded” stand apart in the source; their conditions may differ. Like-named read-outs stand apart in the source and are kept apart here.
# Experiments:
# [1] = test system: Pseudomonas aeruginosa PAO1; test: Antibacterial assay / bacterial checkerboard assay (MIC, FIC, MBC); conditions: for Enhancement: MIC without TU vs with 7 mM TU; for change in MIC / activity with the addition of TU (isobologram): FIG. 1A / 1B, combination with TU; for MIC: Pseudomonas aeruginosa; for Fold Improvement in MIC: at the best FIC; for impact of TU on activity: common antibiotics with TU, Table 3 entries; for Best FIC: with TU at the [TU] of the same line
# [2] = test system: Pseudomonas aeruginosa PAO1; conditions: reference antibiotics against P. aeruginosa PAO1; cited from earlier work
# [3] = [Au], Table 8, strain not given
compound,measurement,setting,value
"CC(=O)OC[C@H]1O[C@@H]([S-])[C@H](OC(C)=O)[C@@H](OC(C)=O)[C@@H]1OC(C)=O.CCP(CC)CC.[Au+] [Auranofin, auranofin]",MIC (0 mM TU),"[1]; [Au], Table 9",377 µM
same,activity enhancement,[1]; 7 mM TU vs alone,256 fold
same,MIC (7 mM TU),"[1]; [Au], Table 9",1.5 µM
same,Enhancement,[1]; Table 9,256
"O.O.O.[Cl][Au-]([Cl])([Cl])[Cl].[H+] [HAuCl4 (Au^3+), tetrachloroauric(III) acid trihydrate]",MIC (0 mM TU),"[1]; [Au], Table 9",40 µM
same,activity enhancement,[1]; 7 mM TU vs alone,32 fold
same,MIC (7 mM TU),"[1]; [Au], Table 9",1.3 µM
same,Enhancement,[1]; Table 9,32
"C[PH](C)(C)[Au][S]CCO [MS-40, trimethylphosphine gold(I) mercaptoethanol]",MIC (0 mM TU),[1]; [3],5.7 µM
same,MIC (1 mM TU),"[1]; 1 mM TU, [Au], Table 8, strain not given",5.7 µM
same,MIC (2 mM TU),"[1]; 2 mM TU, [Au], Table 8, strain not given",5.7 µM
same,MIC (3 mM TU),"[1]; 3 mM TU, [Au], Table 8, strain not given",5.7 µM
same,MIC (7 mM TU),[1]; [3],5.7 µM
same,MIC (13 mM TU),"[1]; 13 mM TU, [Au], Table 8, strain not given",2.9 µM
same,MIC (27 mM TU),"[1]; 27 mM TU, [Au], Table 8, strain not given",2.9 µM
same,MIC (54 mM TU),"[1]; 54 mM TU, [Au], Table 8, strain not given",1.4 µM
same,activity enhancement,[1]; at 54 mM TU,4 fold
CCN1CCN(C(=O)N[C@@H](C(=O)N[C@@H]2C(=O)N3[C@@H]2SC(C)(C)[C@@H]3C(=O)O)c2ccccc2)C(=O)C1=O [Piperacillin],change in MIC / activity with the addition of TU (isobologram),[1],very little change
same,change in MIC / activity with the addition of TU (isobologram),[1]; listed as piperacillin,almost no change
same,MIC,"[1]; PAO1, read-out: MIC w/o TU",2 µM
same,MIC,"[1]; PAO1, read-out: MIC with TU",2 µM
same,Fold Improvement in MIC,[1],1
same,impact of TU on activity,[1],no impact
same,Best FIC,[1],1.0
"NC(N)=S [TU, thiourea]",MIC,[1]; PAO1,16 mg/mL
O=C(O)c1cn(C2CC2)c2cc(N3CCNCC3)c(F)cc2c1=O [ciprofloxacin],change in MIC / activity with the addition of TU (isobologram),[1],very little change; also recorded: almost no change
Gentamicin,change in MIC / activity with the addition of TU (isobologram),[1],very little change; also recorded: almost no change
same,MIC with TU,[1]; TU at the [TU] of the same line (best FIC),4.0 µM
same,Fold Improvement in MIC,[1],1
same,impact of TU on activity,[1],no impact
same,Best FIC,[1],1.0
same,MIC w/o TU,[1]; without TU,4.0 µM
colistin,MIC,[2],0.001 mg/mL
